Laboratory results taken from PubChem BioAssay AID1671325.

Biological target: Mitogen-activated protein kinase 11 (Homo sapiens) (UniProt Q15759)
Experiment: PubChem AID 1671325
Conditions: Z'-LYTE FRET kinase activity, recombinant MAPK11

Chain of Mitogen-activated protein kinase 11 (Homo sapiens) (Q15759 whole entry, looked up): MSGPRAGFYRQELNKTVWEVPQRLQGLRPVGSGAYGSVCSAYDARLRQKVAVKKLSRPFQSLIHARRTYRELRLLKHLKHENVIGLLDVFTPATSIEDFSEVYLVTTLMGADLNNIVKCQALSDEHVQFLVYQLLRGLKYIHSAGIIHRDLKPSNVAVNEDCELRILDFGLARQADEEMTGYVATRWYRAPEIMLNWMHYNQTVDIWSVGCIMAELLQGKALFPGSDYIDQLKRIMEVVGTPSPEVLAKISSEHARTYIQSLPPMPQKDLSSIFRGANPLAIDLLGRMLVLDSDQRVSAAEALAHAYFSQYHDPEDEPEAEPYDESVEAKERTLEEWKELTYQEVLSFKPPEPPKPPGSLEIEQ

CC(C)(C)n1nc(-c2ccc(Cl)cc2)c2c(N)ncnc21
IC50: 3.53 µM
